# Results published in PubChem BioAssay (NCI).
# “And” between values parts separate entries of the source, which are not always exact repeats. Equal entries are not always repeated.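 Step 1: Grow cells in 96-well plates. Step 2: Expose to compound for 48 hours at 5 concentrations. Step 3: Interpolate endpoints linearly; if unreached, use highest concentration. Here, GI50 denotes the concentration required for 50% inhibition of growth. The concentration for full growth arrest is given as TGI.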
# How the values were obtained:
# Assay in all cases: inhibition of tumour cell growth, NCI panel, 48 h
# SK-MEL-28 melanoma = test system: SK-MEL-28 melanoma
# NCI-H522 lung = test system: NCI-H522 lung
# CAKI-1 renal = test system: CAKI-1 renal
# HCT-116 colon = test system: HCT-116 colon
# SW-620 colon = test system: SW-620 colon
# OVCAR-3 ovarian = test system: OVCAR-3 ovarian
# UO-31 renal = test system: UO-31 renal
# MDA-MB-231 breast = test system: MDA-MB-231 breast
# MCF7 breast = test system: MCF7 breast
# PC-3 prostate = test system: PC-3 prostate
Compound,TGI (SK-MEL-28 melanoma) [µM],TGI (NCI-H522 lung) [µM],TGI (CAKI-1 renal) [µM],TGI (HCT-116 colon) [µM],TGI (SW-620 colon) [µM],TGI (OVCAR-3 ovarian) [µM],TGI (UO-31 renal) [µM],GI50 (MDA-MB-231 breast) [µM],TGI (MDA-MB-231 breast) [µM],GI50 (SK-MEL-28 melanoma) [µM],GI50 (NCI-H522 lung) [µM],GI50 (MCF7 breast) [µM],TGI (MCF7 breast) [µM],GI50 (CAKI-1 renal) [µM],GI50 (PC-3 prostate) [µM],TGI (PC-3 prostate) [µM],GI50 (SW-620 colon) [µM],GI50 (OVCAR-3 ovarian) [µM],GI50 (UO-31 renal),GI50 (HCT-116 colon)
COC[C@H](C)N=CN1CCc2ccccc2C1(Cc1ccccc1)Cc1ccccc1,23.6,26.7,44.3,29.7,63.1,43.8,33,,,,,,,,,,,,,
CN1CCN(Cc2cc(NC(=O)c3cccc(C#Cc4cccc5[nH]nc(N)c45)c3)cc(C(F)(F)F)c2)CC1,2.94,3.34,3.06,,2.89,3.56,3.16,1.38,2.73,1.56,1.74,1.65,3.26,1.68,1.81,3.52,1.5,1.92,1.71 µM,
Fc1ccc(Nc2nc3ccccc3c3occc23)cc1,16.6,27.8,5.24,2.41,30.7,12.1,27.8,1.07,19.9,2.45,13.7,3.39,18.5,1.89,7.07,20,17,1.48,12.4 µM,0.13 µM
COc1cccc(Nc2nccc(-c3cnn4ncccc34)n2)c1,0.14,0.767,3.77,> 11,> 12.3,,0.21,0.0839,> 25,0.0395,0.122,0.076,> 25,0.0573,0.0652,1.32,0.0739,,0.0707 µM,0.0478 µM
Nc1c(F)cc(-c2nc3cc(F)ccc3[se]2)cc1Br,> 100,> 100,,13,> 100,> 100,> 79,0.306,7.79,> 100,10.6,0.0267,> 100,,14.5,> 100,> 54.5,0.123,1.43 µM,0.025 µM
CCN(CC)CCNc1ccc2nc(C)n3c4ccc(O)cc4c(=O)c1c23,11.3,2.24,3.6,10.3,1.98,17.1,12.1,,,,,,,,,,,,,
CCOC(=O)CNc1nnnn1C1OC(CO)C(O)C1O (configuration not stated),,> 100,> 100,> 100,> 100,> 100,> 100,,,,,,,,,,,,,
[O-]c1c2c(nn1-c1ccc(Cl)cc1)c1ccccc1c[n+]2Cc1ccccc1,> 100,> 100,> 100,> 100,> 100,> 100,> 100,,,,,,,,,,,,,
C/C(=N\NC(=O)CC(=O)N(C(=O)c1ccc(Cl)cc1)c1ccc(C)cc1)c1ccccc1O,> 100,> 100,> 100,> 100,> 100,> 100,> 100,,,,,,,,,,,,,
CCCCCCCCCCCCCB(O)O,> 100,> 100,,> 100,> 100,> 100,> 100,,,,,,,,,,,,> 100 µM and 27.5 µM,> 100 µM and 47.8 µM
c1ccc(N/N=C2\NN=C(c3ccccc3)CS2)cc1,36.6,10.8,8.32,15.2,29.9,50.9,32.8,,,,,,,,,,,,,
CCCCN(CCCC)CCCn1cnc2ncccc2c1=O,> 100,> 100,> 100,> 100,> 100,> 100,> 100,,,,,,,,,,,,,
COC(=O)C(=O)C(C(=O)C(=O)Nc1cc(C)ccc1C)c1nc2ccc(C(=O)c3ccccc3)cc2[nH]c1=O (configuration not stated),,> 100,> 100,> 100,> 100,,> 100,,,,,,,,,,,,,
Cc1nccc2c3ccc(OCc4cn(-c5ccc(Cl)cc5)nn4)cc3n(CC(C)C)c12,18.2,15.5,,5.65,> 33.3,> 33.3,14,4.69,26.5,4.14,4.17,1.45,9.29,,1.52,> 33.3,3.33,5.15,1.72 µM,1.3 µM
C[Si](C)(C)C(Sc1ccccc1)(Sc1ccccc1)Sc1ccccc1,> 100,,> 100,> 100,> 100,,> 100,,,,,,,,,,,,,
O=C1C2C3C=CC(C2C(=O)N1CN1CCSCC1)C1C2C(=O)N(CN4CCSCC4)C(=O)C2C31 (configuration not stated),> 100,> 100,> 100,> 55.9,> 68.1,> 100,> 100,,,,82.3,69.1,,,,,50.5,,,
C[C@@H](Oc1cc(-n2cnc3ccc(OC[C@@H](O)CO)cc32)sc1C(N)=O)c1ccccc1Cl,> 25,,> 25,> 25,> 25,0.176,> 25,0.416,> 25,0.229,,0.025,> 25,12.2,0.126,> 25,0.0633,0.0491,8.39 µM,0.116 µM
COC(=O)/C(=N\NC(N)=O)C(C(=O)C=C(C)C)C(=O)C(=O)Nc1ccc(Cl)c(Cl)c1 (configuration not stated),> 100,> 100,> 100,> 100,> 100,> 100,> 100,,,,,,,,,,,,,
Cc1cc(Cl)cc(Cc2cc(Cl)cc(C)c2O)c1O,15.2,6.65,9.57,5.54,,7.83,10.6,2.46,8.22,3.46,1.76,2.47,9.66,2.32,2.55,8.68,,2.35,2.06 µM,2.13 µM
CC1C2CC=CC(=O)[C@@]2(C)CCC12OCCO2 (some centres not stated),> 100,> 100,> 100,> 100,> 100,> 100,> 100,,,,,,,,,,,,,
O=c1cc(-c2ccccc2)[nH]c2cc(Cl)ccc12,> 100,0.358,11.4,> 100,16.9,,> 100,,,,,,,,,,,,,
CCOCc1cc(=O)c2c(OC)cc3c(c2o1)CCC(C)(C)O3,> 100,> 100,,> 100,> 100,> 100,> 100,,,,,,,,,,,,,

Compound,TGI (SK-MEL-28 melanoma) [µM],TGI (NCI-H522 lung) [µM],TGI (CAKI-1 renal) [µM],TGI (HCT-116 colon) [µM],TGI (SW-620 colon) [µM],TGI (OVCAR-3 ovarian) [µM],TGI (UO-31 renal) [µM],GI50 (MDA-MB-231 breast) [µM],TGI (MDA-MB-231 breast) [µM],GI50 (SK-MEL-28 melanoma) [µM],GI50 (NCI-H522 lung) [µM],GI50 (MCF7 breast) [µM],TGI (MCF7 breast) [µM],GI50 (CAKI-1 renal) [µM],GI50 (PC-3 prostate) [µM],TGI (PC-3 prostate) [µM],GI50 (SW-620 colon) [µM],GI50 (OVCAR-3 ovarian) [µM],GI50 (UO-31 renal),GI50 (HCT-116 colon)
CC1CC[P+](c2ccccc2)(c2ccccc2)CC1,> 100,> 100,,> 100,> 100,> 100,> 100,,,,,,,,,,,,,
COc1cc(/C=C2/C(=O)N(C(=O)OCc3ccccc3)C(Cc3cc(OC)c(OC)c(C)c3OC)C(=O)N2Cc2ccccc2)c(OC)c(C)c1OC (configuration not stated),> 100,> 100,> 100,> 100,> 100,> 100,> 100,,,,,,,,,,,,,
CCN=C(C#N)NCC,> 100,> 100,> 100,> 100,37.5,> 100,> 100,,,,,,,,,,,,,
CCc1cccc(C)c1NC(=S)NC(=O)c1ccccc1C(=O)NC(=S)Nc1c(C)cccc1CC,> 100,35.2,> 100,> 100,> 100,80.9,> 100,,,,,,,,,,,,,
COc1cnc2c(c1)C(=O)c1c-2n(CCCN2CCNCC2)c(=O)c2cc([N+](=O)[O-])ccc12,3.12,2.03,1.71,1.78,,2.63,1.7,1.47,3.33,1.42,0.506,,,0.202,1.17,2.56,,1.19,0.249 µM,0.096 µM
Cc1ccccc1C1CC(c2ccccc2)=NO1 (configuration not stated),> 100,> 100,> 100,> 100,> 100,> 100,> 100,,,,,,,,,,,,,
C=C(CCCO)[C@@H]1CC[C@@](C)(O)[C@H]1C,> 100,> 100,> 100,> 100,> 100,> 100,> 100,,,,,,,,,,,,,
C=CCN(N=O)C(=O)NCCCCC(NC(C)=O)C(=O)NCc1ccccc1 (configuration not stated),> 100,> 100,> 100,,> 100,> 100,> 100,,,,,,,,,,,,,
COc1ccc(CCc2cc(OC)c(O)c(OC)c2)cc1,58.8,> 100,> 100,> 100,> 100,> 100,> 100,,,,,,,,,,,,,
O=c1c(Cl)cc2nc3ccccc3sc-2c1Cl,35.2,25.9,37.8,32.5,34.9,5.93,29.1,,21.3,,,,32.4,,,,,,,
COc1ccc(OC)c(/C=C/c2nc(SCc3ccccc3)n(-c3ccc(Cl)cc3)n2)c1,> 100,25,5.28,> 100,> 100,12,,30.9,> 100,28.5,3.39,4.78,> 100,2.09,33.3,> 100,5.05,3.54,,4.04 µM
c1ccc2c(NCCCCCCNc3cccc4ccccc34)cccc2c1,> 100,> 100,> 100,> 100,> 100,> 100,> 100,,,,,,,,,,,,,
COc1cc(/C=C2\C[C@H]3[C@@H]4CC=C5C[C@@H](OC(C)=O)CC[C@]5(C)[C@H]4CC[C@]3(C)[C@H]2OC(C)=O)ccc1OCCN1CCCC1,> 50,> 50,25.6,30.7,,23.6,28.9,9.01,17,12.8,18.1,11.1,29.6,12,8,20.4,,10.9,13.1 µM,10.5 µM
CCOC1CC2OC(=O)C1C=C2C(=O)OC (configuration not stated),62.8,28.1,40,,61.1,75.1,> 100,,,,,,,,,,,,,
CC(=O)O[C@H]1CC2C=CC3C(CCC31)O2 (some centres not stated),> 100,,> 100,,> 100,> 100,> 100,,,,,,,,,,,,,
CC(C)C1N2CCCCC2[C@@H]2c3[nH]c4ccccc4c3CCN12 (some centres not stated),> 100,,> 100,> 100,> 100,> 100,> 100,,,,,,,,,,,,,
Cn1cnc([N+](=O)[O-])c1Sc1nccc(=O)[nH]1,> 100,> 100,> 100,> 100,> 100,> 100,> 100,,,,,,,,,,,,,
Cc1ccc2nc(NC(=O)/C(=N\NC(=S)NN)C3C(=O)NC(=S)NC3=O)sc2c1,> 100,> 100,> 100,> 100,> 100,,> 100,,,,,,,,,,,,,
CCOC(=O)C(C(O)c1ccc([N+](=O)[O-])cc1)P(=O)(OCC)OCC (configuration not stated),> 100,> 100,> 100,> 100,> 100,> 100,,,,,,,,,,,,,,
COc1ccc2nc(NC(=O)C(=O)NNC(=O)c3ccncc3)sc2c1,> 100,> 100,> 100,> 100,> 100,> 100,> 100,,,,,,,,,,,,,
Cc1cc(Cl)ccc1NC(=O)C(=O)C(C(=O)c1ccccc1)C1OC(=O)c2ccccc21 (configuration not stated),> 100,> 100,> 100,> 100,> 100,,> 100,,,,,,,,,,,,,
CCCCCCCC(=O)[O][Hg][CH2]C1COC([CH2][Hg][O]C(=O)CCCCCCC)CO1 (configuration not stated),27,> 100,,8.26,19.5,14.8,,20.7,50.8,14,4.8,4.32,18.3,,13.7,26.7,2.91,4.22,,2.29 µM
